Results published in patent publication US12606520B2, “Calpain-2 inhibitor compounds and methods of treatment” (WESTERN UNIVERSITY OF HEALTH SCIENCES, priority 2020, dated 2026).

Columns and labels:
[1] = PK in mice after iv injection of liposomal NA112: brain; type: in vivo; conditions: mice iv 10 mg/kg liposomes, 24 hr; BLQ: below the limit of quantification, assay sensitivity 2 ng/ml
calpain-1 = biological target: T1, calpain-1 (Mus musculus, UniProt O35350); test: Calpain-1 activity in brain after TBI in mice; type: in vivo; design: from tissue; host or cells: mouse brain after TBI; conditions: 1 mg/kg i.p., 24 h after TBI
T1 sequence (O35350 1-713): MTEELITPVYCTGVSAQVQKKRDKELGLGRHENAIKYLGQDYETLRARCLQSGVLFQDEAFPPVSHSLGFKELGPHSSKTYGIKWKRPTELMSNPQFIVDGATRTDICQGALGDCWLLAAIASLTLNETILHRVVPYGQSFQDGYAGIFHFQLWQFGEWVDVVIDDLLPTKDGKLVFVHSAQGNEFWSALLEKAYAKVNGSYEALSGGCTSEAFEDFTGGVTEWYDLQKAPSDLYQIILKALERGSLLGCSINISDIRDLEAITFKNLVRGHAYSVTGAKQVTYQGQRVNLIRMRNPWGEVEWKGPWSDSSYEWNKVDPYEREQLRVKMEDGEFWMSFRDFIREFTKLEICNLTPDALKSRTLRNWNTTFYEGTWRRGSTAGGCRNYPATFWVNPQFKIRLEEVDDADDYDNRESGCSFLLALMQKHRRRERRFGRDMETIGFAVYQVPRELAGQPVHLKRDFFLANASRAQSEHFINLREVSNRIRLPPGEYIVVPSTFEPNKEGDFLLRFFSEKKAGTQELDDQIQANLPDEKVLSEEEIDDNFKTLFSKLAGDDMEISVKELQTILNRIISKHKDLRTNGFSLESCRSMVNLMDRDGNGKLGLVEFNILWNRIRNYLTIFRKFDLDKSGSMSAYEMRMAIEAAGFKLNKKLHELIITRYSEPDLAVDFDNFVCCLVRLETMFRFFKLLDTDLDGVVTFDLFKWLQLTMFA
T1 sequence (O88456 1-268 partner): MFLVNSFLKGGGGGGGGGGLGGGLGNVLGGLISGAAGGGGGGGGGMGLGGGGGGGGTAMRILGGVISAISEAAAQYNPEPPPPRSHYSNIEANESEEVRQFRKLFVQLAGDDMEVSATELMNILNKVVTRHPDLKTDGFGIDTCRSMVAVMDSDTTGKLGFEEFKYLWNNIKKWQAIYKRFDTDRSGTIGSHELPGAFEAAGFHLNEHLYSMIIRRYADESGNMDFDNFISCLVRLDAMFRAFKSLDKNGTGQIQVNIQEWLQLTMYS
Protocol: We also performed the same model of TBI in male and female mice and in male and female rats. In all cases, NA184 was injected i.p. at 1 mg/kg. For the rat experiments, NA184 was injected twice at 1 h and 8 h after TBI. Animals were sacrificed 24 h after TBI and calpain activity was assayed in brain and cell death was analyzed in cortex. […] In addition, there was a highly significant correlation between calpain-2 activity and cell death in rats (FIG. 23). R^2 was 0.61 and p<0.005.

[2] = biological target: T2, recombinant human calpain-2 (hcalpain-2) (Homo sapiens, UniProt P17655); test: Inhibition of recombinant human calpain-2; type: biochemical
T2 sequence (P17655 1-700): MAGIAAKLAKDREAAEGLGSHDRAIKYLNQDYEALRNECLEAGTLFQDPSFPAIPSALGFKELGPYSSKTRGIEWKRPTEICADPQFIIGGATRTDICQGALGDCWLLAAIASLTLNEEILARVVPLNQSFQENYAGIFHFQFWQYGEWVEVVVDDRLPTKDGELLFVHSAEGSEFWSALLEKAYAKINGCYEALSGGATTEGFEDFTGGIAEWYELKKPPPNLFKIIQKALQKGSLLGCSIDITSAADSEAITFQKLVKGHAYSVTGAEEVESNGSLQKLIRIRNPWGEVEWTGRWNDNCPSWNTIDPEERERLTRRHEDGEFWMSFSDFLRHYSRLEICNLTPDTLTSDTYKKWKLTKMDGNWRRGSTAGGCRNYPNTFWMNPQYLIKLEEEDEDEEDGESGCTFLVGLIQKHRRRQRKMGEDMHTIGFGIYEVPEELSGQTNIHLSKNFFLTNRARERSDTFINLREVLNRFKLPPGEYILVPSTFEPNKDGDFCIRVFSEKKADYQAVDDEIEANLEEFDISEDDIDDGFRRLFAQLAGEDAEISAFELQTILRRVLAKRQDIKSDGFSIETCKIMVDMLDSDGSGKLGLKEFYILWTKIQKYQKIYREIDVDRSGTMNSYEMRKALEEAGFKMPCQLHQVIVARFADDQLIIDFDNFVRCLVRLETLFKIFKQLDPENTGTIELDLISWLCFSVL
T2 sequence (P04632 1-268 partner): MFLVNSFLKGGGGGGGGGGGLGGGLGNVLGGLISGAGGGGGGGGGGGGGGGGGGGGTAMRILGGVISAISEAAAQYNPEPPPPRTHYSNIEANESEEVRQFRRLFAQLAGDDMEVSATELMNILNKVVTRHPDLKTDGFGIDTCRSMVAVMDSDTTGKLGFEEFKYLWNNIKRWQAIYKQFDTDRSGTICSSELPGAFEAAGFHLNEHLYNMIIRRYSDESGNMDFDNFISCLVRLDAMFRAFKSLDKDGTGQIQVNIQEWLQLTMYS
Protocol: Various concentrations of NA112 in the liposomal formulation were incubated with human calpain-1 (purified from erythrocytes, ecalpain-1) or a recombinant human calpain-2 (hcalpain-2) and calpain activity assayed as in FIG. 1. IC50 were determined and transformed into Ki values (FIG. 10A, 10B). Values previously obtained with NA112 dissolved in DMSO are shown for comparison (FIG. 10B).
Cerebellar homogenates from wild-type (WT) or calpain-1 Knock-out (KO) mice were incubated with 20 μM calcium to activate calpain-1 or with 2 mM calcium to activate calpain-2, respectively, and increasing concentrations of NA184.
Like in NA112, there are 2 chiral centers in NA184. The inhibitory activity of the compounds NA184A (S-S isomer) and NA184B (S-R stereoisomer) against erythrocyte human calpain-1 (ecalpain-1) and recombinant human calpain-2 (hcalpain-2) were determined.

| Structure (SMILES) | Brain concentration A1 [1] | Brain concentration A2 [1] | Brain concentration Mean [1] | Calpain-1 inhibition in brain, male and female mice (calpain-1) | IC50 [2] [µM] | Ki [2] [µM] |
| --- | --- | --- | --- | --- | --- | --- |
| CCC(NC(=O)[C@H](CC(C)C)NC(=O)NCc1ccccc1)C(=O)C(=O)NCc1cc(OC)cc(OC)c1 (mixture of isomers) [NA112, (2S)-2-(3-benzylureido)-N-(1-((3,5-dimethoxybenzyl)amino)-1,2-dioxopentan-3-yl)-4-methylpentanamide] | BLQ | BLQ | BLQ |  |  |  |
| CCC(NC(=O)[C@H](CC(C)C)NC(=O)NCc1ccccc1)C(=O)C(=O)NCc1cccc(Cl)c1OC (stereo partly drawn) [NA184, (2S)-2-(3-benzylureido)-N-(1-((3-chloro-2-methoxybenzyl)amino)-1,2-dioxopentan-3-yl)-4-methylpentanamide] |  |  |  | not calpain-1 | 0.085 | 0.054 |
